Test results published in patent publication US8815853B2, “Pyrimidinone derivatives, preparation thereof and pharmaceutical use thereof” (Sanofi, priority 2010, dated 2014).

Experiments:
Vps34 = molecular target: T1, Vps34 (Homo sapiens, UniProt Q8NEB9); assay: Phosphorylation of phosphatidylinositol (PI) with Vps34 in vitro, ADP detected by TR-FRET (HTRF Transcreener ADP kit); type: biochemical; settings: 10 μM ATP, 55 μg/mL PI, about 3 nM of Vps34, 1 hour at room temperature; absolute CI50, average of 2 independent experiments; read-out: VPS34 CI 50
T1 construct: purchased Invitrogen PV5126
Experimental: Study of the Phosphorylation of Phosphatidylinositol (PI) with Vps34 In Vitro
This test is based on the detection of the ADP produced during phosphorylation of PI with Bps34 in the presence of ATP. ADP is detected by TR-FRET (Time resolved—Fluorescence Resonance Energy transfer) by using the Transcreener kit marketed by Cisbio (HTRF® Transcreener® ADP, reference 62ADPPEB).
The reaction is started with 10 μL of an ATP solution (Sigma A7699) in a buffer A and lasts for 1 hour at room temperature. […] The enzyme amount is adapted to each batch so as to form about 2 μM of ADP during the reaction. In parallel, an ADP and ATP range giving the possibility of calibration results is prepared according to the indications of the kit. Controls not containing any enzyme (negative control) or not containing any molecules (positive control) are also prepared in parallel. […] Fluorescence emission is detected on a Rubystar apparatus at 620 and 665 nm. The signal ratio is calculated by dividing the 665 nm signal by the 620 nm signal and then by multiplying by 10,000. The signal ratios are converted into an ADP concentration by using the calibration range and according to the instructions of the kit. The percentages of inhibition of the molecules are calculated relatively to the positive controls according to the formula (1−signal ratio of the molecule/signal ratio of the positive control)×100. […] With 2 independent experiments it is possible to calculate the average of the CI50s.

T1 sequence (Q8NEB9 whole entry): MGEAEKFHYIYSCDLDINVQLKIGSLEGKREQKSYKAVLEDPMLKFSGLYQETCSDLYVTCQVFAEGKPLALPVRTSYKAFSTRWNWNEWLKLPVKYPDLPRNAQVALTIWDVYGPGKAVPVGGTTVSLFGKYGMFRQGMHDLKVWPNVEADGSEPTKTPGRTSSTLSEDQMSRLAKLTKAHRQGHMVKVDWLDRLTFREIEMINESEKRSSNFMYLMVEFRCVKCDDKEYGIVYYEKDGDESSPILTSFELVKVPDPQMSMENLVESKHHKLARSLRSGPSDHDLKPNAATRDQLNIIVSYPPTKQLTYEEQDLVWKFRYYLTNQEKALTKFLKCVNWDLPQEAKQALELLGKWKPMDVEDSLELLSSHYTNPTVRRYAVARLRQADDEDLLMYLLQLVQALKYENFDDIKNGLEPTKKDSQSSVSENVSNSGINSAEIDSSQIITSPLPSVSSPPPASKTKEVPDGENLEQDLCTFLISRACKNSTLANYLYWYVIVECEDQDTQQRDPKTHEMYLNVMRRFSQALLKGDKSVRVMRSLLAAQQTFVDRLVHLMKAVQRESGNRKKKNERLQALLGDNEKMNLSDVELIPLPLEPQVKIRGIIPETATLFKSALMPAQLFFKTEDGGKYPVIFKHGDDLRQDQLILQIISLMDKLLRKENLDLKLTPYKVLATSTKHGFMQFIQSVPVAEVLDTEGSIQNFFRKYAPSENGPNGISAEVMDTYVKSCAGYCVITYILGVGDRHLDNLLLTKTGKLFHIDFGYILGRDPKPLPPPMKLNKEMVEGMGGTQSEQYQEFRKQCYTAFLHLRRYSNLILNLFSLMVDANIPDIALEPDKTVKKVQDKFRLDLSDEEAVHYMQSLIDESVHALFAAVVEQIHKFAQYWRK

Row | Compound | IC50 (Vps34) | melting point
1 | CCC(CC)CN1c2nc(N3CCOCC3)cc(=O)n2C[C@@]1(C)C(F)(F)F [Example 1a, (2S)-1-(2-Ethylbutyl)-2-methyl-7-(morpholin-4-yl)-2-(trifluoromethyl)-2,3-dihydroimidazo[1,2-a]pyrimidin-5(1H)-one] | < 10 nM | –
2 | CCC(CC)CN1c2nc(N3CCOCC3)cc(=O)n2CC[C@H]1C(F)(F)F [Example 1b, (8S)-9-(2-Ethylbutyl)-2-(morpholin-4-yl)-8-(trifluoromethyl)-6,7,8,9-tetrahydro-4H-pyrimido[1,2-a]pyrimidin-4-one] | < 10 nM | –
3 | C[C@@]1(C(F)(F)F)Cn2c(nc(N3CCOCC3)cc2=O)N1C1CC1 [Example 2a, (2S)-1-Cyclopropyl-2-methyl-7-(morpholin-4-yl)-2-(trifluoromethyl)-2,3-dihydroimidazo[1,2-a]pyrimidin-5(1H)-one] | < 10 nM | –
4 | O=c1cc(N2CCOCC2)nc2n1CC[C@@H](C(F)(F)F)N2CC1CC1 [Example 2b, (8S)-9-(Cyclopropylmethyl)-2-(morpholin-4-yl)-8-(trifluoromethyl)-6,7,8,9-tetrahydro-4H-pyrimido[1,2-a]pyrimidin-4-one] | < 10 nM | –
5 | C[C@@]1(C(F)(F)F)Cn2c(nc(N3CCOCC3)cc2=O)N1C1CCCC1 [Example 3a, (2S)-1-Cyclopentyl-2-methyl-7-(morpholin-4-yl)-2-(trifluoromethyl)-2,3-dihydroimidazo[1,2-a]pyrimidin-5(1H)-one] | < 10 nM | –
6 | O=c1cc(N2CCOCC2)nc2n1CC[C@@H](C(F)(F)F)N2C1CCCC1 [Example 3b, (8S)-9-Cyclopentyl-2-(morpholin-4-yl)-8-(trifluoromethyl)-6,7,8,9-tetrahydro-4H-pyrimido[1,2-a]pyrimidin-4-one] | < 10 nM | –
7 | CC(C)OCCN1c2nc(N3CCOCC3)cc(=O)n2C[C@@]1(C)C(F)(F)F [Example 4a, (S)-1-(2-Isopropoxy-ethyl)-2-methyl-7-(morpholin-4-yl)-2-(trifluoromethyl)-2,3-dihydroimidazo[1,2-a]pyrimidin-5(1H)-one] | 10 to 100 nM | 88 °C
8 | O=c1cc(N2CCOCC2)nc2n1CC[C@@H](C(F)(F)F)N2CCO [Example 4b, (8S)-9-(2-Hydroxyethyl)-2-(morpholin-4-yl)-8-(trifluoromethyl)-6,7,8,9-tetrahydro-4H-pyrimido[1,2-a]pyrimidin-4-one] | 10 to 100 nM | 117 °C
9 | CC(C)(O)CN1c2nc(N3CCOCC3)cc(=O)n2C[C@@]1(C)C(F)(F)F [Example 5a, (S)-1-(2-Hydroxy-2-methyl-propyl)-2-methyl-7-(morpholin-4-yl)-2-(trifluoromethyl)-2,3-dihydroimidazo[1,2-a]pyrimidin-5(1H)-one] | 10 to 100 nM | 72 °C
10 | COC(C)(C)CN1c2nc(N3CCOCC3)cc(=O)n2C[C@@]1(C)C(F)(F)F [Example 6a, (S)-1-(2-Methoxy-2-methyl-propyl)-2-methyl-7-(morpholin-4-yl)-2-(trifluoromethyl)-2,3-dihydroimidazo[1,2-a]pyrimidin-5(1H)-one] | < 10 nM | –
11 | O=c1cc(N2CCOCC2)nc2n1CC[C@@H](C(F)(F)F)N2CCOCC(F)(F)F [Example 6b, (S)-2-(Morpholin-4-yl)-9-[2-(2,2,2-trifluoro-ethoxy)-ethyl]-8-(trifluoromethyl)-6,7,8,9-tetrahydro-4H-pyrimido[1,2-a]pyrimidin-4-one] | 10 to 100 nM | 107.8 °C
12 | CC(C)OCCN1c2nc(N3CCOCC3)cc(=O)n2CC1(C)C [Example 7a, 1-(2-Isopropoxyethyl)-2,2-dimethyl-7-(morpholin-4-yl)-2,3-dihydroimidazo[1,2-a]pyrimidin-5(1H)-one] | > 100 nM | –
13 | CC(C)OCCN1c2nc(N3CCOCC3)c(F)c(=O)n2CC[C@H]1C(F)(F)F [Example 7b, (8S)-3-Fluoro-9-(2-isopropoxy-ethyl)-2-(morpholin-4-yl)-8-(trifluoromethyl)-6,7,8,9-tetrahydro-4H-pyrimido[1,2-a]pyrimidin-4-one] | < 10 nM | 117 °C
14 | COCCN1c2nc(N3CCOCC3)cc(=O)n2CC12CCCC2 [Example 8a, 1′-(2-Methoxyethyl)-7′-morpholin-4-ylspiro[cyclopentane-1,2′-imidazo[1,2-a]pyrimidin]-5′-one] | > 100 nM | –
15 | CC(C)(O)CN1c2nc(N3CCOCC3)cc(=O)n2CC[C@H]1C(F)(F)F [Example 8b, (8S)-9-(2-Hydroxy-2-methylpropyl)-2-(morpholin-4-yl)-8-(trifluoromethyl)-6,7,8,9-tetrahydro-4H-pyrimido[1,2-a]pyrimidin-4-one] | < 10 nM | –
16 | CC(C)OCCN1c2nc(N3CCOCC3)cc(=O)n2CC12CCCC2 [Example 9a, 1′-(2-isopropoxyethyl)-7′-morpholin-4-ylspiro[cyclopentane-1,2′-imidazo[1,2-a]pyrimidin]-5′-one] | 10 to 100 nM | –
17 | Cc1c(N2CCOCC2)nc2n(c1=O)CC[C@@H](C(F)(F)F)N2CC(C)(C)O [Example 9b, (S)-9-(2-Hydroxy-2-methyl-propyl)-3-methyl-2-(morpholin-4-yl)-8-trifluoromethyl-6,7,8,9-tetrahydro-4H-pyrimido[1,2-a]pyrimidin-4-one] | > 100 nM | 170 °C
18 | COC(C)(C)CN1c2nc(N3CCOCC3)cc(=O)n2CC[C@H]1C(F)(F)F [Example 10b, (S)-9-(2-Methoxy-2-methyl-propyl)-2-(morpholin-4-yl)-8-trifluoromethyl-6,7,8,9-tetrahydro-4H-pyrimido[1,2-a]pyrimidin-4-one] | 10 to 100 nM | 172 °C
19 | CC(C)OCCN1c2nc(N3CCOCC3)cc(=O)n2CC[C@@]1(C)C(F)(F)F [Example 11Ab, (8S)-8-Methyl-2-(morpholin-4-yl)-9-(2-(propan-2-yloxy)ethyl)-8-(trifluoromethyl)-6,7,8,9-tetrahydro-4H-pyrimido[1,2-a]pyrimidin-4-one] | < 10 nM | –
20 | CC(C)OCCN1c2nc(N3CCOCC3)cc(=O)n2CC[C@]1(C)C(F)(F)F [Example 11Bb, (8R)-8-Methyl-2-(morpholin-4-yl)-9-(2-(propan-2-yloxy)ethyl)-8-(trifluoromethyl)-6,7,8,9-tetrahydro-4H-pyrimido[1,2-a]pyrimidin-4-one] | > 100 nM | –
21 | COCCN1c2nc(N3CCOCC3)cc(=O)n2CCC1(C)C [Example 12b, 9-(2-Methoxyethyl)-8,8-dimethyl-2-(morpholin-4-yl)-6,7,8,9-tetrahydro-4H-pyrimido[1,2-a]pyrimidin-4-one] | 10 to 100 nM | –
22 | CC(C)OCCN1c2nc(N3CCOCC3)cc(=O)n2CCC1(C)C [Example 13b, 9-(2-Isopropoxyethyl)-8,8-dimethyl-2-(morpholin-4-yl)-6,7,8,9-tetrahydro-4H-pyrimido[1,2-a]pyrimidin-4-one] | 10 to 100 nM | –
23 | COCCN1CC(C)(C)Cn2c1nc(N1CCOCC1)cc2=O [Example 14b, 9-(2-Methoxyethyl)-7,7-dimethyl-2-(morpholin-4-yl)-6,7,8,9-tetrahydro-4H-pyrimido[1,2-a]pyrimidin-4-one] | > 100 nM | –
24 | CC(C)OCCN1CC(C)(C)Cn2c1nc(N1CCOCC1)cc2=O [Example 15b, 9-(2-Isopropoxyethyl)-7,7-dimethyl-2-(morpholin-4-yl)-6,7,8,9-tetrahydro-4H-pyrimido[1,2-a]pyrimidin-4-one] | > 100 nM | –
25 | CC(C)OCCN1CC2(CC2)Cn2c1nc(N1CCOCC1)cc2=O [Example 16b, 1-(2-Isopropoxyethyl)-8′-(morpholin-4-yl)-1′,2′-dihydro-spiro[cyclopropane-1,3′-pyrimido[1,2-a]pyrimidin]-6′-one] | 10 to 100 nM | –
26 | CS(=O)(=O)CCN1c2nc(N3CCOCC3)cc(=O)n2CC[C@H]1C(F)(F)F [Example 17b, (8S)-9-(2-Methanesulfonyl-ethyl)-2-morpholin-4-yl-8-trifluoromethyl-6,7,8,9-tetrahydro-pyrimido[1,2-a]pyrimidin-4-one] | < 10 nM | 96 °C
